Reference: ChEMBL document CHEMBL3734724, “Anticancer efficacy of unique pyridine-based tetraindoles” (Eur J Med Chem, 2015)
pIC50: −log10 of the molar value. Calls of active or inactive are those of the source. No cut-off for these calls is given here.

Key:
MDA-MB-231 [1] = assay: Cell cycle arrest in human MDA-MB-231 cells assessed as accumulation at G2/M phase after 48 hrs by propidium iodide staining-based flow cytometric analysis; assay type: functional
MDA-MB-231 [2] = assay: Antitumor activity against luciferase-expressing human MDA-MB-231 cells xenografted in ip dosed nude mouse assessed as tumor growth inhibition administered every other day measured on day 54; assay type: functional, organism-based
MDA-MB-231 [3] = assay: Antimetastatic activity against luciferase-expressing human MDA-MB-231 cells xenografted in ip dosed nude mouse assessed as reduction of lung metastasis administered every other day measured on day 54; assay type: functional, organism-based
MDA-MB-231 [4] = assay: Reduction of phospho-cdc2 (Tyr15) dephosphorylation in human MDA-MB-231 cells after 48 hrs by Western blot analysis; assay type: functional, cell-based
MDA-MB-231 [5] = assay: Cell cycle arrest in human MDA-MB-231 cells assessed as accumulation at G2/M phase at 0.8 uM after 48 hrs by propidium iodide staining-based flow cytometric analysis (reference value: 16 +/- 3%); assay type: functional
MDA-MB-231 [6] = assay: Upregulation of cyclin B1 protein expression in human MDA-MB-231 cells at 0.4 to 3.2 uM after 48 hrs by Western blot analysis relative to control; assay type: functional, cell-based
MDA-MB-231 [7] = assay: Cell cycle arrest in human MDA-MB-231 cells assessed as accumulation at S phase at 0.8 uM after 48 hrs by propidium iodide staining-based flow cytometric analysis (reference value: 26 +/- 3%); assay type: functional
MDA-MB-231 [8] = assay: Induction of apoptosis in human MDA-MB-231 cells assessed as DNA ladder formation at 0.4 to 3.2 uM after 24 hrs; assay type: functional, cell-based
MDA-MB-231 [9] = assay: Cell cycle arrest in human MDA-MB-231 cells assessed as accumulation at sub-G1 phase at 0.4 uM after 48 hrs by propidium iodide staining-based flow cytometric analysis relative to control; assay type: functional
MDA-MB-231 [10] = assay: Antitumor activity against luciferase-expressing human MDA-MB-231 cells xenografted in nude mouse assessed as tumor growth inhibition at 10 mg/kg, ip administered every other day measured on day 54 relative to vehicle-treated control; assay type: functional; conditions: MDA-MB-231, ip, 1296 h, read-out: TGI
MDA-MB-231 [11] = assay: Cell cycle arrest in human MDA-MB-231 cells assessed as accumulation at S phase at 0.4 uM after 48 hrs by propidium iodide staining-based flow cytometric analysis (reference value: 26 +/- 3%); assay type: functional
MDA-MB-231 [12] = assay: Cell cycle arrest in human MDA-MB-231 cells assessed as accumulation at G2/M phase at 0.4 uM after 48 hrs by propidium iodide staining-based flow cytometric analysis (reference value: 16 +/- 3%); assay type: functional
MDA-MB-231 [13] = assay: Induction of DNA damage in human MDA-MB-231 cells at 3.2 uM after 48 hrs by alkaline comet assay relative to control; assay type: functional
MDA-MB-231 [14] = assay: Antitumor activity against luciferase-expressing human MDA-MB-231 cells xenografted in nude mouse assessed as tumor growth inhibition at 25 mg/kg, ip administered every other day measured on day 54 relative to vehicle-treated control; assay type: functional; conditions: MDA-MB-231, ip, 1296 h, read-out: TGI
MDA-MB-231 [15] = assay: Induction of apoptosis in human MDA-MB-231 cells assessed as DNA ladder formation at 0.2 to 3.2 uM after 48 hrs; assay type: functional, cell-based
MDA-MB-231 [16] = assay: Cell cycle arrest in human MDA-MB-231 cells assessed as accumulation at G0/G1 phase at 0.4 uM after 24 hrs by propidium iodide staining-based flow cytometric analysis (reference value: 57 +/- 6%); assay type: functional
MDA-MB-231 [17] = assay: Cell cycle arrest in human MDA-MB-231 cells assessed as accumulation at G2/M phase at 0.4 uM after 24 hrs by propidium iodide staining-based flow cytometric analysis (reference value: 12 +/- 2%); assay type: functional
MDA-MB-231 [18] = assay: Cytotoxicity against human MDA-MB-231 cells assessed as growth inhibition after 48 hrs by MTT assay; assay type: functional, cell-based; conditions: MDA-MB-231, 48 h
[19] = Ratio of compound IC50 to SK228 IC50 for human M10 cells; assay type: ADME, cell-based; conditions: read-out: Ratio IC50
MDA-MB-231 [20] = assay: Cell cycle arrest in human MDA-MB-231 cells assessed as accumulation at S phase at 0.4 uM after 24 hrs by propidium iodide staining-based flow cytometric analysis (reference value: 32 +/- 4%); assay type: functional
MDA-MB-231 [21] = assay: Upregulation of phosphorylated chk2 protein expression in human MDA-MB-231 cells after 48 hrs by Western blot analysis; assay type: functional, cell-based
MDA-MB-231 [22] = assay: Antimetastatic activity against luciferase-expressing human MDA-MB-231 cells xenografted in nude mouse assessed as suppression of lung metastasis by measuring reduction of lung weight at 25 mg/kg, ip administered every other day measured on day 54 relative to vehicle-treated control; assay type: functional; design: scale not given: the % may be the effect or the level left
MDA-MB-231 [23] = assay: Cell cycle arrest in human MDA-MB-231 cells assessed as accumulation at S phase at 1.6 uM after 24 hrs by propidium iodide staining-based flow cytometric analysis (reference value: 32 +/- 4%); assay type: functional
[24] = Cytotoxicity against human Hs578T cells assessed as growth inhibition at 20 uM after 48 hrs by MTT assay relative to control; assay type: functional; conditions: Hs-578T, read-out: GI
MDA-MB-231 [25] = assay: Cell cycle arrest in human MDA-MB-231 cells assessed as accumulation at G2/M phase at 1.6 uM after 48 hrs by propidium iodide staining-based flow cytometric analysis (reference value: 16 +/- 3%); assay type: functional
MDA-MB-231 [26] = assay: Cell cycle arrest in human MDA-MB-231 cells assessed as accumulation at sub-G1 phase at 1.6 uM after 48 hrs by propidium iodide staining-based flow cytometric analysis relative to control; assay type: functional
MDA-MB-231 [27] = assay: Upregulation of Bax protein expression in human MDA-MB-231 cells after 48 hrs by Western blot analysis; assay type: functional, cell-based
MDA-MB-231 [28] = assay: Cell cycle arrest in human MDA-MB-231 cells assessed as accumulation at sub-G1 phase at 1.6 uM after 24 hrs by propidium iodide staining-based flow cytometric analysis relative to control; assay type: functional
[29] = Cytotoxicity against human M10 cells assessed as growth inhibition at 20 uM after 48 hrs by MTT assay relative to control; assay type: cell-based; conditions: read-out: GI
MDA-MB-231 [30] = assay: Cell cycle arrest in human MDA-MB-231 cells assessed as accumulation at G0/G1 phase at 1.6 uM after 24 hrs by propidium iodide staining-based flow cytometric analysis (reference value: 57 +/- 6%); assay type: functional
[31] = Cytotoxicity against human Hs578T cells assessed as growth inhibition after 48 hrs by MTT assay; assay type: functional, cell-based; conditions: Hs-578T
MDA-MB-231 [32] = assay: Cell cycle arrest in human MDA-MB-231 cells assessed as accumulation at G2/M phase at 1.6 uM after 24 hrs by propidium iodide staining-based flow cytometric analysis (reference value: 12 +/- 2%); assay type: functional
MDA-MB-231 [33] = assay: Cell cycle arrest in human MDA-MB-231 cells assessed as accumulation at S phase at 1.6 uM after 48 hrs by propidium iodide staining-based flow cytometric analysis (reference value: 26 +/- 3%); assay type: functional
MDA-MB-231 [34] = assay: Cell cycle arrest in human MDA-MB-231 cells assessed as accumulation at G0/G1 phase at 0.8 uM after 24 hrs by propidium iodide staining-based flow cytometric analysis (reference value: 57 +/- 6%); assay type: functional
MDA-MB-231 [35] = assay: Cell cycle arrest in human MDA-MB-231 cells assessed as accumulation at G0/G1 phase at 0.8 uM after 48 hrs by propidium iodide staining-based flow cytometric analysis (reference value: 57.8 +/- 0.7%); assay type: functional

In the case of `Oc1ccc2[nH]cc(C(c3ccc(C(c4c[nH]c5ccc(O)cc45)c4c[nH]c5ccc(O)cc45)nc3)c3c[nH]c4ccc(O)cc34)c2c1`, the Activity (MDA-MB-231 [1]) was “Dose-dependent effect”, the TGI (MDA-MB-231 [2]) was “Dose-dependent effect” and the Activity (MDA-MB-231 [3]) was “Dose-dependent effect”. The Activity (MDA-MB-231 [4]) was “Dose-dependent effect”, the Activity (MDA-MB-231 [5]) was 22% and the Activity (MDA-MB-231 [6]) was “Active”. The Activity (MDA-MB-231 [7]) was 29%, the Activity (MDA-MB-231 [8]) was “inactive” and the Activity (MDA-MB-231 [9]) was 1.3%. The inhibition in vivo at 10 mg/kg (MDA-MB-231 [10]) was 58%, the Activity (MDA-MB-231 [11]) was 28% and the Activity (MDA-MB-231 [12]) was 18%. The “fold change (FC)” value (MDA-MB-231 [13]) was 12, the inhibition in vivo at 25 mg/kg (MDA-MB-231 [14]) was 70% and the Activity (MDA-MB-231 [15]) was “Active”. It also gave an Activity (MDA-MB-231 [16]) of 53%, an Activity (MDA-MB-231 [17]) of 13.2% and a pIC50 (MDA-MB-231 [18]) of 6.10. For the same molecule, the selectivity ratio [19] was 4, the Activity (MDA-MB-231 [20]) was 33% and the Activity (MDA-MB-231 [21]) was “Dose-dependent effect”. The Activity (MDA-MB-231 [22]) was 22%, the Activity (MDA-MB-231 [23]) was 27% and the inhibition of growth at 20 µM [24] was 25%. For the same molecule, the Activity (MDA-MB-231 [25]) was 24%, the Activity (MDA-MB-231 [26]) was 23% and the Activity (MDA-MB-231 [27]) was “Dose-dependent effect”. For the same molecule, the Activity (MDA-MB-231 [28]) was 16%, the inhibition at 48 h, 20 µM [29] was 37% and the Activity (MDA-MB-231 [30]) was 53%. For the same molecule, the pIC50 [31] was less than 4.70, the Activity (MDA-MB-231 [32]) was 20% and the Activity (MDA-MB-231 [33]) was 32%. It also gave an Activity (MDA-MB-231 [34]) of 54% and an Activity (MDA-MB-231 [35]) of 49%.
